Source: US20250129430A1, “HIGH ATP-AFFINITY PROTEIN AS THERAPEUTIC TARGET FOR INTRACTABLE CANCER MOLECULAR SUBTYPES AND INHIBITOR THEREOF” (VeraVerse Co., Ltd., priority 2021, published 2025)

Tests used:
Experiment in all cases: Cell viability drug screen, 12-point dose-response AUC
Assay type in all cases: cell-based, human
[1] = tested on: AGS; conditions: 72 hours; for area under the viability curve (AUC), normalized: AGS cells, 12-point dose-response
Summary of the method: (§1)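 AUC comes from 12-point half-log dose–response curves, normalized to DMSO-treated cells and integrated trapezoidally, repeats averaged. Luminescent viability read after 72 h compound exposure at 37 °C; cells plated 5×10^3 per well 24 h before dosing.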

[2] = tested on: Hs746T; conditions: 72 hours; for area under the viability curve (AUC), normalized: Hs746T cells, 12-point dose-response
Summary of the method: (§2)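 AUC values represent the area under DMSO-normalized 12-point curves, computed by trapezoid rule and averaged over repeated experiments. Each EMT-type gastric line was exposed to half-log serial concentrations for 72 h at 37 °C, and viability was measured with a Glo luminescence kit.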

[3] = tested on: KATO3; conditions: KATO3 cells, 72 hours; for area under the viability curve (AUC), normalized: 12-point dose-response
Summary of the method: as §2

[4] = tested on: MKN1; conditions: MKN1 cells, 72 hours; for area under the viability curve (AUC), normalized: 12-point dose-response
Summary of the method: as §2

[5] = tested on: MKN28; conditions: MKN28 cells, 72 hours; for area under the viability curve (AUC), normalized: 12-point dose-response
Summary of the method: as §2

[6] = tested on: MKN45; conditions: 72 hours; for area under the viability curve (AUC), normalized: MKN45 cells, 12-point dose-response
Summary of the method: as §1

[7] = tested on: MKN74; conditions: MKN74 cells, 72 hours; for area under the viability curve (AUC), normalized: 12-point dose-response
Summary of the method: as §1

[8] = tested on: NCC19; conditions: NCC19 cells, 72 hours; for area under the viability curve (AUC), normalized: 12-point dose-response
Summary of the method: as §2

[9] = tested on: NCC20; conditions: NCC20 cells, 72 hours; for area under the viability curve (AUC), normalized: 12-point dose-response
Summary of the method: as §2

[10] = tested on: NCC24; conditions: NCC24 cells, 72 hours; for area under the viability curve (AUC), normalized: 12-point dose-response
Summary of the method: as §2

[11] = tested on: NCC59; conditions: NCC59 cells, 72 hours; for area under the viability curve (AUC), normalized: 12-point dose-response
Summary of the method: as §2

[12] = tested on: NCI_N87; conditions: NCI_N87 cells, 72 hours; for area under the viability curve (AUC), normalized: 12-point dose-response
Summary of the method: as §2

[13] = tested on: OCUM1; conditions: OCUM1 cells, 72 hours; for area under the viability curve (AUC), normalized: 12-point dose-response
Summary of the method: as §2

[14] = tested on: SK4; conditions: 72 hours; for area under the viability curve (AUC), normalized: SK4 cells, 12-point dose-response
Summary of the method: as §2

[15] = tested on: SNU16; conditions: SNU16 cells, 72 hours; for area under the viability curve (AUC), normalized: 12-point dose-response
Summary of the method: as §2

[16] = tested on: SNU1750; conditions: 72 hours; for area under the viability curve (AUC), normalized: SNU1750 cells, 12-point dose-response
Summary of the method: as §2

[17] = tested on: SNU1967; conditions: SNU1967 cells, 72 hours; for area under the viability curve (AUC), normalized: 12-point dose-response
Summary of the method: as §2

[18] = tested on: SNU1; conditions: SNU1 cells, 72 hours; for area under the viability curve (AUC), normalized: 12-point dose-response
Summary of the method: as §2

[19] = tested on: SNU216; conditions: 72 hours; for area under the viability curve (AUC), normalized: SNU216 cells, 12-point dose-response
Summary of the method: as §1

[20] = tested on: SNU484; conditions: 72 hours; for area under the viability curve (AUC), normalized: SNU484 cells, 12-point dose-response
Summary of the method: as §2

[21] = tested on: SNU601; conditions: SNU601 cells, 72 hours; for area under the viability curve (AUC), normalized: 12-point dose-response
Summary of the method: as §2

[22] = tested on: SNU620; conditions: SNU620 cells, 72 hours; for area under the viability curve (AUC), normalized: 12-point dose-response
Summary of the method: as §2

[23] = tested on: SNU638; conditions: SNU638 cells, 72 hours; for area under the viability curve (AUC), normalized: 12-point dose-response
Summary of the method: as §2

[24] = tested on: SNU668; conditions: 72 hours; for area under the viability curve (AUC), normalized: SNU668 cells, 12-point dose-response
Summary of the method: as §2

[25] = tested on: SNU719; conditions: SNU719 cells, 72 hours; for area under the viability curve (AUC), normalized: 12-point dose-response
Summary of the method: as §1

[26] = tested on: YCC11; conditions: 72 hours; for area under the viability curve (AUC), normalized: YCC11 cells, 12-point dose-response
Summary of the method: as §2

[27] = tested on: YCC2; conditions: YCC2 cells, 72 hours; for area under the viability curve (AUC), normalized: 12-point dose-response
Summary of the method: as §2

[28] = tested on: YCC3; conditions: YCC3 cells, 72 hours; for area under the viability curve (AUC), normalized: 12-point dose-response
Summary of the method: as §2

[29] = tested on: FU97; parameters: Average Area Under the Viability Curve (AUC), AUC norm value: scale not given here; conditions: FU97 cells, 72 hours; for area under the viability curve (AUC), normalized: 12-point dose-response
Summary of the method: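 Trapezoidal AUC of a 12-point, DMSO-normalized dose-response curve. Luminescent viability was measured after 72 h of exposure at 37° C to half-log serial dilutions (0.5% DMSO control), dosed 24 h after plating FU97 cells at 5×10^3 per well.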

## CC(C)C[C@H](NC(=O)[C@H](Cc1ccccc1)NC(=O)c1cnccn1)B(O)O [Bortezomib (Velcade), Bortezomib]
[1]
  area under the viability curve (AUC), normalized: −0.1894
[2]
  area under the viability curve (AUC), normalized: −0.9394
[3]
  area under the viability curve (AUC), normalized: 1.082
[4]
  area under the viability curve (AUC), normalized: 0.3149
[5]
  area under the viability curve (AUC), normalized: −0.416
[6]
  area under the viability curve (AUC), normalized: 0.1641
[7]
  area under the viability curve (AUC), normalized: 0
[8]
  area under the viability curve (AUC), normalized: −0.6969
[9]
  area under the viability curve (AUC), normalized: −0.1078
[10]
  area under the viability curve (AUC), normalized: −0.3911
[11]
  area under the viability curve (AUC), normalized: 0.8821
[12]
  area under the viability curve (AUC), normalized: 1.569
[13]
  area under the viability curve (AUC), normalized: 2.346
[14]
  area under the viability curve (AUC), normalized: 0.3944
[15]
  area under the viability curve (AUC), normalized: −0.0987
[16]
  area under the viability curve (AUC), normalized: −1.326
[17]
  area under the viability curve (AUC), normalized: −0.8453
[18]
  area under the viability curve (AUC), normalized: −0.3028
[19]
  area under the viability curve (AUC), normalized: 0.4223
[20]
  area under the viability curve (AUC), normalized: −0.6338
[21]
  area under the viability curve (AUC), normalized: −0.07383
[22]
  area under the viability curve (AUC), normalized: −0.6115
[23]
  area under the viability curve (AUC), normalized: 0.06564
[24]
  area under the viability curve (AUC), normalized: 1.358
[25]
  area under the viability curve (AUC), normalized: 1.081
[26]
  area under the viability curve (AUC), normalized: −0.6649
[27]
  area under the viability curve (AUC), normalized: 0.6953
[28]
  area under the viability curve (AUC), normalized: 2.791
[29]
  area under the viability curve (AUC), normalized: 0.01494

## C#Cc1cccc(Nc2ncnc3cc(OC)c(OCCCCCCC(=O)NO)cc23)c1 [CUDC-101]
[1]
  area under the viability curve (AUC), normalized: −0.9569
[2]
  area under the viability curve (AUC), normalized: 0.4609
[3]
  area under the viability curve (AUC), normalized: 0.683
[4]
  area under the viability curve (AUC), normalized: 0.6267
[5]
  area under the viability curve (AUC), normalized: −0.7663
[6]
  area under the viability curve (AUC), normalized: 1.5
[7]
  area under the viability curve (AUC), normalized: −0.5407
[8]
  area under the viability curve (AUC), normalized: 1.187
[9]
  area under the viability curve (AUC), normalized: −0.7885
[10]
  area under the viability curve (AUC), normalized: 0.1814
[11]
  area under the viability curve (AUC), normalized: 1.8155
[12]
  area under the viability curve (AUC), normalized: −0.4217
[13]
  area under the viability curve (AUC), normalized: 0.3332
[14]
  area under the viability curve (AUC), normalized: −0.04342
[15]
  area under the viability curve (AUC), normalized: 0.427
[16]
  area under the viability curve (AUC), normalized: −1.203
[17]
  area under the viability curve (AUC), normalized: −0.301
[18]
  area under the viability curve (AUC), normalized: 0
[19]
  area under the viability curve (AUC), normalized: −0.5746
[20]
  area under the viability curve (AUC), normalized: 0.5831
[21]
  area under the viability curve (AUC), normalized: −0.1084
[22]
  area under the viability curve (AUC), normalized: −0.4289
[23]
  area under the viability curve (AUC), normalized: −0.8807
[24]
  area under the viability curve (AUC), normalized: 0.9508
[25]
  area under the viability curve (AUC), normalized: 0.9348
[26]
  area under the viability curve (AUC), normalized: 0.3451
[27]
  area under the viability curve (AUC), normalized: −0.1991
[28]
  area under the viability curve (AUC), normalized: 0.7562
[29]
  area under the viability curve (AUC), normalized: −0.4688

## CO[C@H]1C(=O)[C@]2(C)[C@@H](OC)C[C@H]3OC[C@@]3(OC(C)=O)[C@H]2[C@H](OC(=O)c2ccccc2)[C@]2(O)C[C@H](OC(=O)[C@H](O)[C@@H](NC(=O)OC(C)(C)C)c3ccccc3)C(C)=C1C2(C)C [Cabazitaxel (Jevtana), Cabazitaxel]
[1]; AGS cells (non-SEM subtype)
  Average Area Under the Viability Curve (AUC), AUC norm value: −2.201
[2]; Hs746T cells (SEM subtype)
  Average Area Under the Viability Curve (AUC), AUC norm value: 1.085
[3]
  Average Area Under the Viability Curve (AUC), AUC norm value: 4.95
[4]
  Average Area Under the Viability Curve (AUC), AUC norm value: −1.266
[5]
  Average Area Under the Viability Curve (AUC), AUC norm value: −2.213
[6]; MKN45 cells (non-SEM subtype)
  Average Area Under the Viability Curve (AUC), AUC norm value: 2.138
[7]
  Average Area Under the Viability Curve (AUC), AUC norm value: 0.4319
[8]
  Average Area Under the Viability Curve (AUC), AUC norm value: 0
[9]
  Average Area Under the Viability Curve (AUC), AUC norm value: −0.8551
[10]
  Average Area Under the Viability Curve (AUC), AUC norm value: −1.077
[11]
  Average Area Under the Viability Curve (AUC), AUC norm value: 3.939
[12]
  Average Area Under the Viability Curve (AUC), AUC norm value: −1.712
[13]
  Average Area Under the Viability Curve (AUC), AUC norm value: 3.086
[14]; SK4 cells (SEM subtype)
  Average Area Under the Viability Curve (AUC), AUC norm value: −0.7298
[15]
  Average Area Under the Viability Curve (AUC), AUC norm value: −2.759
[16]; SNU1750 cells (SEM subtype)
  Average Area Under the Viability Curve (AUC), AUC norm value: 0.6058
[17]
  Average Area Under the Viability Curve (AUC), AUC norm value: 1.228
[18]
  Average Area Under the Viability Curve (AUC), AUC norm value: −3.451
[19]; SNU216 cells (non-SEM subtype)
  Average Area Under the Viability Curve (AUC), AUC norm value: 2.335
[20]; SNU484 cells (SEM subtype)
  Average Area Under the Viability Curve (AUC), AUC norm value: −0.7278
[21]
  Average Area Under the Viability Curve (AUC), AUC norm value: −1.688
[22]
  Average Area Under the Viability Curve (AUC), AUC norm value: −3.501
[23]
  Average Area Under the Viability Curve (AUC), AUC norm value: −0.1608
[24]; SNU668 cells (SEM subtype)
  Average Area Under the Viability Curve (AUC), AUC norm value: 0.4109
[25]
  Average Area Under the Viability Curve (AUC), AUC norm value: 6.209
[26]; YCC11 cells (SEM subtype)
  Average Area Under the Viability Curve (AUC), AUC norm value: −1.189
[27]
  Average Area Under the Viability Curve (AUC), AUC norm value: 0.2073
[28]
  Average Area Under the Viability Curve (AUC), AUC norm value: 3.384
[29]
  Average Area Under the Viability Curve (AUC), AUC norm value: 0.3061
